# Where two headings read alike, the source gives them in different places.
# Legend:
# [1] = system: inflammatory bowel disease; settings: trial terminated; cited from earlier work
# [2] = Tissue distribution and oral exposure in ICR mice (LC-MS); assay type: in vivo; settings: oral 5 mg/kg; for AUC(0-t): mouse
# Procedure: The tissue distribution experiment of compounds XYF573c and LSX472a of the present invention in ICR mice was carried out, and their distribution in plasma and organs and oral exposure (AUC0-8h) were compared.
# ICR mice were purchased from Shanghai Experimental Animal Research Center.
# The concentrations of the compounds in plasma and various organs of ICR mice were detected by LC-MS.
# During the experiment, the mice were fasted for more than 12 hours, had free access to water, and provided with food 2 hours after administration.
# Both compounds XYF573c and LSX472a were administered orally, the dose was 5 mg/kg, and the solvent was DMSO/0.5% HPMC (5/95, v/v), N=3.
# At 0.5 h, 2 h and 8 h after oral administration, about 20 μL of mouse heart blood, portal vein plasma or 20 mg of liver, lung, and ileum tissues were taken in clean centrifuge tubes, 200 μL of MeOH/ACN (50/50, v/v) was added and spun in a vortex mixer for 1 min. The mixtures were centrifuged at 15,000 rpm for 5 min and 20 μL of supernatants were mixed with 20 μL of ACN/water (1/1, v/v) and quantified by LC-MS.
# The values of AUC0-8h were calculated by trapezoidal method based on the concentrations of the compound at 0.5 h, 2 h and 8 h.
# [3] = target: GPR40 (Homo sapiens, UniProt O14842); settings: cited from earlier work
# Chain of GPR40 (O14842 whole entry, species assumed): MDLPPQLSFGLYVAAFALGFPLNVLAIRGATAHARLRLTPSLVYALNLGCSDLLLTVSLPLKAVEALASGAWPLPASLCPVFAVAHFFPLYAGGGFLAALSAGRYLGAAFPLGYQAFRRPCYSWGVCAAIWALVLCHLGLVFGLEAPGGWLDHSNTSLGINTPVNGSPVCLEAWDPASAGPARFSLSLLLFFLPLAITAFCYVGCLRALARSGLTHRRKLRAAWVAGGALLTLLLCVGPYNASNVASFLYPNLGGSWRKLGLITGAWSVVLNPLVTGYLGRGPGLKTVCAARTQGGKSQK
# [4] = target: GPR84 (Homo sapiens, UniProt Q9NQS5); settings: cited from earlier work
# Chain of GPR84 (Q9NQS5 whole entry, species assumed): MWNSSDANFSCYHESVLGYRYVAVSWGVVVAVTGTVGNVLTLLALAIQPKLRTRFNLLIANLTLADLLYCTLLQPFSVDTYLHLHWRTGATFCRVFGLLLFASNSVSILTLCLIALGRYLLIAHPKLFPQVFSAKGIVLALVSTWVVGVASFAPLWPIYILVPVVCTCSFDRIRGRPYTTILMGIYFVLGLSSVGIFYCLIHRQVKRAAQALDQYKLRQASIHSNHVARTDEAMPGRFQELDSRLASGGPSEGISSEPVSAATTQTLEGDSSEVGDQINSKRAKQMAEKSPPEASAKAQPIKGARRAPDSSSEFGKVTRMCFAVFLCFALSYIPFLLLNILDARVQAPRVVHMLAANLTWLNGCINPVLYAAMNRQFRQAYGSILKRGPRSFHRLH
# [5] = target: T1, GPR120 (Homo sapiens, UniProt Q5NUL3); settings: cited from earlier work
# T1 sequence (Q5NUL3 1-361): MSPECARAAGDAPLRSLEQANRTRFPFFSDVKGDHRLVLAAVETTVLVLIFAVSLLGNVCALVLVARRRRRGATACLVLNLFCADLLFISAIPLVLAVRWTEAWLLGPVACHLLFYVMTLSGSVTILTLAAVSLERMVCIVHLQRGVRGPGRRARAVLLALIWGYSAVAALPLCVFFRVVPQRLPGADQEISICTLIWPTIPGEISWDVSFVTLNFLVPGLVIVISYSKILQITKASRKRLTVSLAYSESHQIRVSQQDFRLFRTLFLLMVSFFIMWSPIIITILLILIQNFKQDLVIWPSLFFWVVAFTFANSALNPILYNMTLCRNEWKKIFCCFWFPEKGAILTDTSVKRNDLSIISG
smiles,measurement,setting,value
O=c1nc(OC[C@@H]2COCCO2)cc2n1CCc1cc(C#CC3CC3)ccc1-2 [GLPG1205],efficacy in phase II clinical study versus placebo,[1],lack of significant difference in efficacy from the placebo group
COc1cccc2c1Sc1ccccc1C=C2OP(=O)(O)O[C@@H]1C[C@@H]2CC[C@@]1(C)C2(C)C [LSX472a],AUC(0-t),"[2]; heart plasma, read-out: AUC0-8h, Heart plasma",7750 ng·h/mL
same,AUC(0-t),"[2]; portal vein plasma, read-out: AUC0-8h, Portal vein plasma",8820 ng·h/mL
same,exposure in the intestinal tract (such as Ileum) compared to XYF573c,[2],significantly increased
same,"AUC0-8h, Ileum",[2]; ileum,62902.60 ng·h/g
same,"AUC0-8h, Liver",[2]; liver,4387.83 ng·h/g
same,"AUC0-8h, Lung",[2]; lung,745.34 ng·h/g
same,increase in oral exposure (Plasma AUC0-8h) compared to XYF573c,[2]; plasma,13 fold
"CCCCCc1cc(CCCCC)cc(CC(=O)[O-])c1.[Na+] [PBI-4547, 3,5-di-n-pentyl phenylacetate sodium]",agonistic activity on GPR40,[3],agonistic activity
same,antagonistic activity on GPR84,[4],at the micromolar level
same,agonistic activity on GPR120,[5],agonistic activity

# — patent publication US20240342201A1, “ASYMMETRIC GPR84 ANTAGONIST AND USE THEREOF” (priority 2021, published 2024)
